Measurements as given in paper PMC9516332 (Frontiers in Oncology, 2022).
Read-outs that look alike come from different tables or passages of the source.

What was measured:
[1] = system: 134 cancer cell lines; experiment: Cell viability assay (ATPlite, 72 hours), IC50 on cancer cell line panel
[2] = target: panel of 255 wild-type kinases (Homo sapiens, UniProt P45983); experiment: Kinase panel profiling at 1 µmol/L (MSA or IMAP), percentage inhibition; assay type: biochemical; conditions: kinase JNK1; 1 µmol/L single concentration; read-out: %-inhibition at 1 µmol/L, JNK1
[3] = target: T1, panel of 255 wild-type kinases (Homo sapiens, UniProt Q8IW41); experiment: as above; assay type: biochemical; conditions: MAPKAPK5; 1 µmol/L single concentration; read-out: %-inhibition, MAPKAPK5
T1 sequence (Q8IW41 1-473): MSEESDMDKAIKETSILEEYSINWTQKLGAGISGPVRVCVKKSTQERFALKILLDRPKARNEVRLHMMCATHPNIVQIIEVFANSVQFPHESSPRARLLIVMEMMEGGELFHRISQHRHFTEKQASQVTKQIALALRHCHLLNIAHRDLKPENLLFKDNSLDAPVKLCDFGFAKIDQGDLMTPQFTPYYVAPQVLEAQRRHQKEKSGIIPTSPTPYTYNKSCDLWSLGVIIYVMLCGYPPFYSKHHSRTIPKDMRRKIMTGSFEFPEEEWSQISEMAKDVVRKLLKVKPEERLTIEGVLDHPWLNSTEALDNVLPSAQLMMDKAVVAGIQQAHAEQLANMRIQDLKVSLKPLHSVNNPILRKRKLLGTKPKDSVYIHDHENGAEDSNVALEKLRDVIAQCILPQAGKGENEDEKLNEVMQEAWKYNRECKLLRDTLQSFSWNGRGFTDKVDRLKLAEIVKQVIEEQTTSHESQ

**Q.** Which results are given for `CCn1c(=O)c(-c2cc(NC(=O)Nc3ccccc3)c(F)cc2Br)cc2cnc(NC)cc21` [ripretinib]?
**A.** IC50 ([1]; Homo sapiens, MCF7, read-out: IC50 in cell proliferation assay): > 31.6 µM; IC50 ([1]; Homo sapiens, MDA-MB-231, read-out: IC50 in cell proliferation assay): 1.26 µM; IC50 ([1]; Homo sapiens, MDA-MB-453, read-out: IC50 in cell proliferation assay): 3.53 µM; IC50 ([1]; Homo sapiens, MDA-MB-468, read-out: IC50 in cell proliferation assay): 2.47 µM; IC50 ([1]; Homo sapiens, MG-63, read-out: IC50 in cell proliferation assay): 12.3 µM; IC50 ([1]; Homo sapiens, MIA PaCa-2, read-out: IC50 in cell proliferation assay): 24.2 µM; IC50 ([1]; Homo sapiens, MKN-45, read-out: IC50 in cell proliferation assay): > 31.6 µM; IC50 ([1]; Homo sapiens, MOLM-13, read-out: IC50 in cell proliferation assay): 0.238 µM; IC50 ([1]; Homo sapiens, MOLT-4, read-out: IC50 in cell proliferation assay): 3.83 µM; IC50 ([1]; Homo sapiens, MV4-11, read-out: IC50 in cell proliferation assay): 0.578 µM; IC50 ([1]; Homo sapiens, MeWo, read-out: IC50 in cell proliferation assay): 3.58 µM; IC50 ([1]; Homo sapiens, NCCIT, read-out: IC50 in cell proliferation assay): 1.73 µM; IC50 ([1]; Homo sapiens, NCI-H82, read-out: IC50 in cell proliferation assay): 1.11 µM; IC50 ([1]; Homo sapiens, NCI-H460, read-out: IC50 in cell proliferation assay): 1.62 µM; IC50 ([1]; Homo sapiens, NCI-H661, read-out: IC50 in cell proliferation assay): 11.8 µM; IC50 ([1]; Homo sapiens, NCI-H716, read-out: IC50 in cell proliferation assay): 1.44 µM; IC50 ([1]; Homo sapiens, NCI-H1650, read-out: IC50 in cell proliferation assay): > 31.6 µM; IC50 ([1]; Homo sapiens, NCI-H1975, read-out: IC50 in cell proliferation assay): 2.17 µM; IC50 ([1]; Homo sapiens, NCI-H2228, read-out: IC50 in cell proliferation assay): 4.14 µM; IC50 ([1]; Homo sapiens, OVCAR-3, read-out: IC50 in cell proliferation assay): 2 µM; IC50 ([1]; Homo sapiens, PFSK-1, read-out: IC50 in cell proliferation assay): 8 µM; IC50 ([1]; Homo sapiens, RL95-2, read-out: IC50 in cell proliferation assay): 1.13 µM; IC50 ([1]; Homo sapiens, RPMI-7951, read-out: IC50 in cell proliferation assay): 6.45 µM; IC50 ([1]; Homo sapiens, RS4-11, read-out: IC50 in cell proliferation assay): 1.17 µM; IC50 ([1]; Homo sapiens, Rec1, read-out: IC50 in cell proliferation assay): 5.27 µM; IC50 ([1]; Homo sapiens, SHP77, read-out: IC50 in cell proliferation assay): > 31.6 µM; IC50 ([1]; Homo sapiens, SK-BR-3, read-out: IC50 in cell proliferation assay): 2.04 µM; IC50 ([1]; Homo sapiens, SK-N-AS, read-out: IC50 in cell proliferation assay): 2.37 µM; IC50 ([1]; Homo sapiens, SK-N-FI, read-out: IC50 in cell proliferation assay): 2.92 µM; IC50 ([1]; Homo sapiens, SK-N-MC, read-out: IC50 in cell proliferation assay): 4.76 µM; IC50 ([1]; Homo sapiens, SK-N-SH, read-out: IC50 in cell proliferation assay): 3.61 µM; IC50 ([1]; Homo sapiens, SNU-5, read-out: IC50 in cell proliferation assay): 30.2 µM; IC50 ([1]; Homo sapiens, SNU-16, read-out: IC50 in cell proliferation assay): 0.773 µM; IC50 ([1]; Homo sapiens, SNU-C2B, read-out: IC50 in cell proliferation assay): 15.7 µM; IC50 ([1]; Homo sapiens, SU-DHL-1, read-out: IC50 in cell proliferation assay): 2.78 µM; IC50 ([1]; Homo sapiens, SU-DHL-6, read-out: IC50 in cell proliferation assay): 8.19 µM; IC50 ([1]; Homo sapiens, SUP-T1, read-out: IC50 in cell proliferation assay): 2.46 µM; IC50 ([1]; Homo sapiens, SW48, read-out: IC50 in cell proliferation assay): 2.84 µM; IC50 ([1]; Homo sapiens, SW480, read-out: IC50 in cell proliferation assay): 3.6 µM; IC50 ([1]; Homo sapiens, SW626, read-out: IC50 in cell proliferation assay): 3.91 µM; IC50 ([1]; Homo sapiens, SW780, read-out: IC50 in cell proliferation assay): 30.7 µM; IC50 ([1]; Homo sapiens, SW837, read-out: IC50 in cell proliferation assay): 7.36 µM; IC50 ([1]; Homo sapiens, SW872, read-out: IC50 in cell proliferation assay): 2.46 µM; IC50 ([1]; Homo sapiens, SW900, read-out: IC50 in cell proliferation assay): 9.13 µM; IC50 ([1]; Homo sapiens, SW948, read-out: IC50 in cell proliferation assay): 1.68 µM; IC50 ([1]; Homo sapiens, SW982, read-out: IC50 in cell proliferation assay): 2.26 µM; IC50 ([1]; Homo sapiens, SW-620, read-out: IC50 in cell proliferation assay): 1.9 µM; IC50 ([1]; Homo sapiens, T98G, read-out: IC50 in cell proliferation assay): 3.47 µM; IC50 ([1]; Homo sapiens, TCC-SUP, read-out: IC50 in cell proliferation assay): 1.29 µM; IC50 ([1]; Homo sapiens, THP-1, read-out: IC50 in cell proliferation assay): 0.981 µM; IC50 ([1]; Homo sapiens, U2OS, read-out: IC50 in cell proliferation assay): 3.38 µM; IC50 ([1]; Homo sapiens, U-87 MG, read-out: IC50 in cell proliferation assay): > 31.6 µM; IC50 ([1]; Homo sapiens, U-118-MG, read-out: IC50 in cell proliferation assay): 4.22 µM; IC50 ([1]; Homo sapiens, UMUC3, read-out: IC50 in cell proliferation assay): 2.89 µM; IC50 ([1]; Hs766T, read-out: IC50 in cell proliferation assay): 4.7 µM; IC50 ([1]; L-82, read-out: IC50 in cell proliferation assay): 3.03 µM; IC50 ([1]; Rh30, read-out: IC50 in cell proliferation assay): 3 µM; inhibition at 1 µM [2]: 4%; inhibition at 1 µM [3]: -3.71%
